Experiments:
rape = experiment: Test B pre/postemergence rape; assay type: in vivo, Brassica napus; settings: for Rape plant response rating: scale of 0 to 10 where 0 is no effect and 10 is complete control
Outline: (§1)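 Herbicidal effect was estimated by eye on a ten-point control scale after plants spent twelve to sixteen days in a greenhouse following soil or foliar treatment. Foliar sprays targeted plants at one to four leaves; all doses were formulated in a non-phytotoxic solvent with surfactant.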

smallflower flatsedge = experiment: Test B flood test smallflower flatsedge; assay type: in vivo, Cyperus difformis
Outline: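 Plants were grown to the 2-leaf stage before treatment with test chemical, then held in a greenhouse for twelve to sixteen days. Injury was visually rated against untreated controls on a 0–10 scale, where 0 is no effect and 10 is complete control.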

goosegrass = experiment: Test D goosegrass; assay type: in vivo, Eleusine indica; settings: Postemergence, 0 to 100 scale
soybean = experiment: Test B pre/postemergence soybean; assay type: in vivo, Glycine max; settings: for Soybean plant response rating: scale of 0 to 10 where 0 is no effect and 10 is complete control
Outline: as §1

corn = experiment: Test B pre/postemergence corn; assay type: in vivo, Zea mays; settings: for Corn plant response rating: scale of 0 to 10 where 0 is no effect and 10 is complete control
Outline: as §1

purple nutsedge = experiment: Test D purple nutsedge; assay type: in vivo, Cyperus rotundus; settings: Postemergence, 0 to 100 scale
Green foxtail = experiment: Test D green foxtail; assay type: in vivo; settings: Postemergence, 0 to 100 scale, 0 no injury, 100 complete control
dallisgrass = experiment: Test D dallisgrass; assay type: in vivo, Paspalum dilatatum; settings: Postemergence, 0 to 100 scale
large crabgrass = experiment: Test D large crabgrass; assay type: in vivo, Digitaria sanguinalis; settings: Postemergence, 0 to 100 scale
[1] = Postemergence, Rate 125 g/ha, scale 0 to 10, 0 is no effect, 10 is complete control
[2] = Preemergence, Rate 62 g/ha, scale 0 to 10 (0 no effect, 10 complete control)
[3] = Rate 500 g/ha, Postemergence, scale 0 to 10, 0 no effect, 10 complete control
[4] = Rate 16 g/ha, 0 no injury, 100 complete control
[5] = Rate 32 g/ha, 0 no injury, 100 complete control
[6] = Rate 64 g/ha, 0 no injury, 100 complete control
[7] = Rate 125 g/ha, 0 no injury, 100 complete control

For CCC(CC)n1c(=O)on(C(=O)N(c2ccc(F)cc2)C(C)C)c1=O [Compound 358], the “Plant response rating, Rape” value (rape; [1]) was 1, the “Plant response rating, Rape” value (rape; [2]) was 0 and the “Rape plant response rating (0 to 10 scale)” value (rape; Preemergence, Rate 125 g/ha) was 0. For the same compound, the “Rape plant response rating” value (rape; Preemergence, Rate 250 g/ha) was 4, the “Rape plant response rating” value (rape; Preemergence, Rate 500 g/ha) was 4 and the “Rape plant response rating” value (rape; Rate 62 g/ha, Postemergence) was 1. The “Plant response rating, Rape” value (rape; [3]) was 4, the “Plant response rating, S. Flatsedge” value (smallflower flatsedge; Postemergence (flood test), Rate 125 g/ha, scale 0 to 10, 0 is no effect, 10 is complete control) was 0 and the “S. Flatsedge plant response rating” value (smallflower flatsedge; Rate 62 g/ha, Postemergence (flood test species), scale of 0 to 10 where 0 is no effect and 10 is complete control) was 0. For the same compound, the “Plant response rating, S. Flatsedge (0 to 10 scale, 0 is no effect, 10 is complete control)” value (smallflower flatsedge; Rate 62 g/ha, flood test species, Pre-emergence, visual evaluation after twelve to sixteen days) was 0, the “S. Flatsedge plant response rating” value (smallflower flatsedge; Rate 125 g/ha, Pre-emergence, flood test species, scale 0 to 10 where 0 is no effect and 10 is complete control) was 6 and the “S. Flatsedge plant response rating” value (smallflower flatsedge; Rate 250 g/ha, Pre-emergence, flood-test species, scale 0 to 10, 0 is no effect, 10 is complete control) was 8. For the same compound, the “S. Flatsedge plant response rating” value (smallflower flatsedge; Rate 500 g/ha, Pre-emergence, flood test species, scale 0 to 10 (0 no effect, 10 complete control)) was 8, the “Plant response rating, Goosegrass” value (goosegrass; [4]) was 0 and the “Plant response rating, Goosegrass” value (goosegrass; [5]) was 20. For the same compound, the “Plant response rating, Goosegrass” value (goosegrass; [6]) was 100, the “Plant response rating, Goosegrass” value (goosegrass; [7]) was 100 and the “Plant response rating, Goosegrass” value (goosegrass; Rate 250 g/ha) was 100. For the same compound, the “Plant response rating, Soybean” value (soybean; [1]) was 4, the “Plant response rating, Soybean” value (soybean; [2]) was 0 and the “Soybean plant response rating (0 to 10 scale)” value (soybean; Preemergence, Rate 125 g/ha) was 0. For the same compound, the “Soybean plant response rating” value (soybean; Preemergence, Rate 250 g/ha) was 0, the “Soybean plant response rating” value (soybean; Preemergence, Rate 500 g/ha) was 1 and the “Soybean plant response rating” value (soybean; Rate 62 g/ha, Postemergence) was 4. For the same compound, the “Plant response rating, Soybean” value (soybean; [3]) was 7, the “Plant response rating, Corn” value (corn; [1]) was 0 and the “Plant response rating, Corn” value (corn; [2]) was 0. For the same compound, the “Corn plant response rating (0 to 10 scale)” value (corn; Preemergence, Rate 125 g/ha) was 0, the “Corn plant response rating” value (corn; Preemergence, Rate 250 g/ha) was 2 and the “Corn plant response rating” value (corn; Preemergence, Rate 500 g/ha) was 6. The “Corn plant response rating” value (corn; Rate 62 g/ha, Postemergence) was 0, the “Plant response rating, Corn” value (corn; [3]) was 0 and the “Plant response rating, Purple nutsedge” value (purple nutsedge; [4]) was 0. The “Plant response rating, Purple nutsedge” value (purple nutsedge; [5]) was 0, the “Purple nutsedge plant response rating” value (purple nutsedge; [6]) was 0 and the “Purple nutsedge plant response rating” value (purple nutsedge; [7]) was 0. For the same compound, the “Plant response rating, Purple nutsedge” value (purple nutsedge; Rate 250 g/ha) was 10, the “Plant response rating, Green foxtail” value (Green foxtail; Rate 16 g/ha) was 0 and the “Plant response rating, Green foxtail” value (Green foxtail; Rate 32 g/ha) was 30. For the same compound, the “Plant response rating, Dallisgrass” value (dallisgrass; [4]) was 0, the “Plant response rating, Dallisgrass” value (dallisgrass; [5]) was 30 and the “Plant response rating, Dallisgrass” value (dallisgrass; [6]) was 100. The “Plant response rating, Dallisgrass” value (dallisgrass; [7]) was 100, the “Plant response rating, Dallisgrass” value (dallisgrass; Rate 250 g/ha) was 100 and the “Plant response rating, Large crabgrass” value (large crabgrass; [4]) was 0. For the same compound, the “Plant response rating, Large crabgrass” value (large crabgrass; [5]) was 40, the “Plant response rating, Large crabgrass” value (large crabgrass; [6]) was 100 and the “Plant response rating, Large crabgrass” value (large crabgrass; [7]) was 100. The “Plant response rating, Large crabgrass” value (large crabgrass; Rate 250 g/ha) was 100.

Reference: patent US6737383B1, “Herbicidal oxadiazolidines” (priority 1999, dated 2004)
